Test [1] has as its system MCF-7 breast cancer cell line. The test can be described thus: MTS cell viability (antiproliferative) assay in MCF-7. Format: cell-based. As to conditions: Homo sapiens, MCF7, 72 h, MTS assay, 72 hours, mean ± SD. The method, then:
Hormone-positive breast cancer cell line MCF-7 (ATCC-HTB-22; ATCC) was grown in Dulbecco's Modified Eagle's Medium (DMEM), while Ewing sarcoma cell line SK-N-MC (a kind gift from Beat Schäfer) and THP-1 (ATCC-TIB-202; ATCC) cells were grown in Roswell Park Memorial Institute (RPMI) 1640. The medium was supplemented with 10% heat-inactivated fetal bovine serum (Gibco, Thermo Fisher Scientific, Waltham, MA, USA), 100 U per mL penicillin, 100 μg per mL streptomycin, and 2 mM L-glutamine (all from Sigma-Aldrich, St. Louis, MO, USA). All cell lines were incubated at 37 °C in a 5% CO2 atmosphere.
The antiproliferative activity of the compounds was evaluated against MCF-7 (ATCC-HTB-22; ATCC), SK-N-MC (a kind gift from Beat Schäfer) and THP-1 (ATCC-TIB-202; ATCC) cancer cell lines using the MTS assay (Promega, Madison, WI, USA). Cells were seeded in 96-well plates at a density of 2 × 10^4 cells per mL in 100 μL of growth medium for THP-1 and were treated with compounds and controls directly, while 3 × 10^3 cells per mL for MCF-7 and SK-N-MC were seeded in 100 μL of growth medium and allowed to adhere overnight following the treatment. In all cases the cells were treated with respective newly prepared compounds, positive controls (17-DMAG for MCF-7 and SK-N-MC; PU-H71 for THP-1) and a vehicle control (0.5% DMSO). The incubation time after treatment was 72 hours, then CellTiter96® Aqueous One Solution Reagent (Promega, Madison, WI, USA) was added to each well. Following a 3 hours incubation, absorbance was measured at 492 nm using BioTek's Synergy™ 4 Hybrid Microplate Reader (Winooski, VT, USA). The measurements were performed in two biological repetitions and each time the experiment was performed in a triplicate. The IC50 values, representing the concentration of inhibitor required for half-maximal inhibition, are the average of three independent experiments and were calculated using GraphPad Prism 9.5.0 software (San Diego, CA, USA).
A general note: Tetrazolium dyes change colour on reduction, which living cells bring about.

Test [2] concerns Hsp90 client protein levels (Cdk4, Akt, c-Raf, ERα, IGF1R) and Hsp70, Hsp90 in MCF-7 cells. The test is described as follows: Western blot of Hsp90 client proteins and heat shock proteins. Format: cell-based. Conditions: for ERα level: MCF-7, 20 μM; for heat shock response (Hsp70 and Hsp90 levels): MCF-7, 24 hours. The method, then:
MCF-7 cells were treated with compounds 8c (20 μM and 50 μM), 13g (20 μM and 50 μM) and DDO-5936 (20 μM) or 0.5% DMSO as a negative control. The cells were incubated with the compounds or negative control for 24 hours. After incubation, the cells were rinsed with PBS (Gibco, Thermo Fisher Scientific, Waltham, MA, USA) and lysed using RIPA buffer containing 50 mM Tris–HCl pH 7.4, 150 mM NaCl, 1% NP-40, 0.5% sodium deoxycholate, and 1 mM EDTA. The RIPA buffer was further supplemented with Halt™ Protease Inhibitor Cocktail and Halt™ Phosphatase Inhibitor Cocktail (both from Thermo Fisher Scientific, Waltham, MA, USA) at a 1 : 100 dilution. The lysates were then frozen for at least 24 hours. Upon thawing, the lysates were sonicated and centrifuged at 15 000 rpm for 20 minutes at 4 °C. Only the supernatants were collected, and protein concentration was measured using the DC protein assay (Bio-Rad, Hercules, California, USA). Proteins (20 μg) were separated by SDS-PAGE on a 10% acrylamide/bisacrylamide gel, running at 80 V for 15 minutes followed by 130 V for 60 minutes. The separated proteins were then transferred onto a nitrocellulose membrane using the iBlot 2 Dry Blotting System (Thermo Fisher Scientific, Waltham, MA, USA). The membranes were blocked with 5% BSA for 1 hour at room temperature to prevent nonspecific binding. Primary antibodies were then added, and the membranes were incubated overnight at 4 °C. The primary antibodies (Cell Signaling, Danvers, MA, USA) used included anti-β-ActinMouse mAb (1 : 5000), anti-Hsp90 Rabbit mAb (1 : 1000), anti-Hsp70 Mouse mAb (1 : 1000), anti-IGF1R Rabbit (1 : 1000), anti-CDK4 Rabbit (1 : 1000), anti-ERα Mouse mAb (1 : 1000), anti-Akt Rabbit mAb (1 : 1000), and anti-c-Raf Rabbit mAb (1 : 1000). Secondary antibodies included anti-rabbit IgG, HRP-linked antibody (1 : 10 000), and anti-mouse IgG, HRP-linked antibody (1 : 10 000), which were incubated with the membranes for 1 hour at room temperature. Following washes, SuperSignal™ West Femto Maximum Sensitivity Substrate (Thermo Fisher Scientific, Waltham, MA, USA) was applied. Visualization of the blots was performed using the UVITEC Cambridge Imaging System (UVITEC, Cambridge, UK), and densitometric analysis of the western blot bands was conducted using NineAlliance software. Relative protein densities were calculated in relation to β-actin, used as a loading control.

Molecules are shown by their SMILES.

By IC50 is commonly meant the concentration at which inhibition is half-maximal. Consider `CN(CCOc1ccccc1)C(=O)c1csc(Nc2cc(N3CCNCC3)ncn2)n1` [Compound 8c, N-Methyl-N-(2-phenoxyethyl)-2-((6-(piperazin-1-yl)pyrimidin-4-yl)amino)thiazole-4-carboxamide], for which the IC50 in test [1] is 20 ± 1.2 µM. Further, in test [2] (24 hours), the ERα level entry is reported as “significantly influenced”. Further, in test [2] (MCF-7, 50 μM, 24 hours), the Hsp70 levels entry was “statistically insignificant decrease”; the “concentration of kinase clients Cdk4, c-Raf, IGF1R, and Akt” value is given as “decreased”. Moreover, the “heat shock response (Hsp70 and Hsp90 levels)” value in test [2] is given as “do not induce a heat shock response”.

In the case of `O=C(NCCOc1ccccc1)c1ccc(Nc2cc(N3CCNCC3)ncn2)cc1` [Compound 13g, N-(2-Phenoxyethyl)-4-((6-(piperazin-1-yl)pyrimidin-4-yl)amino)benzamide], in test [1], the IC50 was found to be 19.3 ± 2 µM. In addition, the ERα level result in test [2] (24 hours) is given as “significantly influenced”. Moreover, the “concentration of kinase clients Cdk4, c-Raf, IGF1R, and Akt” value in test [2] (MCF-7, 50 μM, 24 hours) was “decreased”. Besides, in test [2], the “heat shock response (Hsp70 and Hsp90 levels)” value is “do not induce a heat shock response”.
